Experimental data reported in US20260335495A1, “SYNERGISTIC ACTIVITY OF NOVEL COMPOUNDS AGAINST PLANKTONIC AND BIOFILM CELLS OF CLINICALLY RELEVANT PATHOGENS” (priority 2021, published 2026).

Assays:
[1] = high concentrations, ALS for CVADs; cited from earlier work
[2] = system: C. albicans ON47; test: MBC/MFC and FMCI, planktonic cells; assay type: cell-based; conditions: for MBC/MFC: alone
Method: (§1) The MIC was determined by the micro broth dilution method in 96-well plates. […] A 10 μL containing 1×10^5 bacterial cells or 2×10^3 fungal cells were added to each well. The inoculated plates were covered with a lid, sealed with Parafilm, and incubated for 24 h at 37 °C with slight rocking on a tilting platform shaker. After incubation, the optical density at 600 nm (OD 600) of the cultures in each well was measured using an xMark™ Microplate Absorbance Spectrophotometer (Bio-Rad). […] MBCs and MFCs were determined by transferring 100 μL from each well with no apparent growth onto appropriate agar plates, followed by incubation for 24 h at 37 °C.
(§2) The concentrations of antimicrobials used were based on previously determined MIC values. […] Microtiter plates were incubated at 37 °C for 24 h, and the results were analyzed. Each test was performed in duplicate and included a growth control without the addition of any antimicrobials.

[3] = system: Candida albicans SK4b; test: MBC/MFC and FMCI, planktonic cells; assay type: cell-based; conditions: for MBC/MFC: alone
Method: as §1, §2

[4] = system: Pseudomonas aeruginosa SK1; test: MBC/MFC and FMCI, planktonic cells; assay type: cell-based; conditions: for MBC/MFC: alone
Method: as §1, §2

[5] = system: Stenotrophomonas maltophilia ON17; test: MBC/MFC and FMCI, planktonic cells; assay type: cell-based; conditions: for MBC/MFC: alone
Method: as §1, §2

[6] = system: S. epidermidis SK9; test: MBC/MFC and FMCI, planktonic cells; assay type: cell-based; conditions: for MBC/MFC: alone
Method: (§3) The MIC was determined by the micro broth dilution method in 96-well plates. […] A 10 μL containing 1×10^5 bacterial cells or 2×10^3 fungal cells were added to each well. The inoculated plates were covered with a lid, sealed with Parafilm, and incubated for 24 h at 37 °C with slight rocking on a tilting platform shaker. After incubation, the optical density at 600 nm (OD 600) of the cultures in each well was measured using an xMark™ Microplate Absorbance Spectrophotometer (Bio-Rad). The MIC was defined as the lowest concentration of antimicrobial compound at which the culture OD600 values was similar to uninoculated control wells. MBCs and MFCs were determined by transferring 100 μL from each well with no apparent growth onto appropriate agar plates, followed by incubation for 24 h at 37 °C.
as §2

[7] = system: Serratia marcescens SK2; test: MBC/MFC and FMCI, planktonic cells; assay type: cell-based; conditions: for MBC/MFC: alone
Method: as §3, §2

[8] = system: Staphylococcus aureus ON89; test: MBC/MFC and FMCI, planktonic cells; assay type: cell-based; conditions: for MBC/MFC: alone
Method: as §3, §2

[9] = system: Escherichia coli ON29; test: MBC/MFC and FMCI, planktonic cells; assay type: cell-based; conditions: for MBC/MFC: alone
Method: as §3, §2

[10] = system: commonly encountered pathogens; conditions: cited from earlier work
[11] = system: clinically relevant pathogens; conditions: 4%; cited from earlier work
[12] = system: E. coli; conditions: 40 mg/mL, locked for 21-25 h, catheter segments; cited from earlier work
[13] = system: P. aeruginosa; conditions: 40 mg/mL, locked for 21-25 h, catheter segments; cited from earlier work
[14] = system: Klebsiella pneumoniae; conditions: 40 mg/mL, locked for 21-25 h, catheter segments; cited from earlier work
[15] = 40 mg/mL solution (4% solution) in distilled water; cited from earlier work
[16] = system: C. albicans; conditions: 40 mg/mL, locked for 21-25 h, catheter segments; cited from earlier work
[17] = system: S. epidermidis; conditions: 40 mg/mL, locked for 21-25 h, catheter segments; cited from earlier work

| Structure (SMILES) | MBC/MFC in combination ([2]; TE + ET in combination) [%] | MBC/MFC [2] [%] | MBC/MFC in combination ([3]; TE + ET in combination) [%] | MBC/MFC [3] [%] | MBC/MFC in combination ([4]; TE + ET in combination) [%] | MBC/MFC [4] [%] | MBC/MFC in combination ([5]; TE + ET in combination) [%] | MBC/MFC [5] [%] | MBC/MFC in combination ([6]; TE + ET in combination) [%] | MBC/MFC [6] [%] | MBC/MFC in combination ([7]; TE + ET in combination) [%] | MBC/MFC [7] [%] | MBC/MFC in combination ([8]; TE + ET in combination) [%] | MBC/MFC [8] [%] | MBC/MFC in combination ([9]; TE + ET in combination) [%] | MBC/MFC [9] [%] | other results |
| --- | --- | --- | --- | --- | --- | --- | --- | --- | --- | --- | --- | --- | --- | --- | --- | --- | --- |
| CCO [ET, ethanol] | 3.125 | 6.25 | 3.125 | 6.25 | 6.25 | 12.5 | 1.6 | 6.25 | 3.125 | 12.5 | 6.25 | 12.5 | 3.125 | 25 | 6.25 | 25 | adverse events [1]: breaches in catheter integrity, systemic toxicity, and protein precipitation causing intraluminal occlusions; concentration required for a 3-log reduction [10]: ≥ 60% |
| O=C(O)CN(CCN(CC(=O)O)CC(=O)O)CC(=O)O.[Na].[Na].[Na].[Na] [TE, tetrasodium ethylenediaminetetraacetic acid] | 0.25 | 2 | 0.25 | 1 | 0.031 | 1 | 0.125 | 1 | 0.031 | 0.5 | 0.25 | 2 | 0.25 | 1 | 0.25 | 1 | MBC/MFC in combination ([2]; TE + CH in combination): 0.031%; MBC/MFC in combination ([3]; TE + CH in combination): 0.125%; MBC/MFC in combination ([4]; TE + CH in combination): 0.031%; MBC/MFC in combination ([5]; TE + CH in combination): 0.031%; biofilm eradication and microbial killing [11]: biofilm eradication and microbial killing ability; MBC/MFC in combination ([6]; TE + CH in combination): 0.008%; MBC/MFC in combination ([7]; TE + CH in combination): 0.125%; MBC/MFC in combination ([8]; TE + CH in combination): 0.008%; MBC/MFC in combination ([9]; TE + CH in combination): 0.008%; biofilm colonization [12]: reduced biofilm colonization; biofilm colonization [13]: reduced biofilm colonization; biofilm colonization [14]: reduced biofilm colonization; pH [15]: ~ 11.0; biofilm colonization [16]: reduced biofilm colonization; biofilm colonization [17]: reduced biofilm colonization |
